Test results: US12077503B2, “Substituted cyclic amides and their use as herbicides” (FMC CORPORATION, priority 2015, dated 2024)

What was measured:
Format in all cases: in vivo
Kochia (Kochia scoparia) [1] = experiment: Test A preemergence; conditions: for Plant response rating, Kochia: 125 g ai/ha, preemergence, 0 to 100 scale (0 no effect, 100 complete control); for Kochia plant response rating (0 to 100 scale, 0 is no effect, 100 is complete control): Preemergence, 500 g ai/ha, visual injury approx. 10 d
Summary of the method: (§1)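 Preemergence soil spray on seeded pots or post-emergence spray on 1–2 leaf plants, in loam–sand blend. Greenhouse ~10 d. Visual rating 0–100 against untreated plants.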

[2] = system: barnyardgrass (Echinochloa crus-galli); experiment: Test A preemergence; conditions: for Plant response rating, Barnyardgrass: 125 g ai/ha, preemergence, 0 to 100 scale (0 no effect, 100 complete control); for Barnyardgrass plant response rating (0 to 100 scale, 0 is no effect, 100 is complete control): Preemergence, 500 g ai/ha, visual injury approx. 10 d
Summary of the method: as §1

[3] = system: giant foxtail (Setaria faberii); experiment: Test A preemergence; conditions: for Plant response rating, Foxtail, Giant: 125 g ai/ha, preemergence, 0 to 100 scale (0 no effect, 100 complete control); for Foxtail, Giant plant response rating (0 to 100 scale, 0 is no effect, 100 is complete control): Preemergence, 500 g ai/ha, visual injury approx. 10 d
Summary of the method: as §1

[4] = system: pigweed (Amaranthus retroflexus); experiment: Test A preemergence; conditions: for Plant response rating, Pigweed: 125 g ai/ha, preemergence, 0 to 100 scale (0 no effect, 100 complete control); for Pigweed plant response rating (0 to 100 scale, 0 is no effect, 100 is complete control): Preemergence, 500 g ai/ha, visual injury approx. 10 d
[5] = system: ragweed (common ragweed, Ambrosia elatior); experiment: Test A preemergence; conditions: for Plant response rating, Ragweed: 125 g ai/ha, preemergence, 0 to 100 scale (0 no effect, 100 complete control); for Ragweed plant response rating (0 to 100 scale, 0 is no effect, 100 is complete control): Preemergence, 500 g ai/ha, visual injury approx. 10 d
Summary of the method: as §1

[6] = system: ryegrass, Italian (Italian ryegrass, Lolium multiflorum); experiment: Test A preemergence; conditions: for Plant response rating, Ryegrass, Italian: 125 g ai/ha, preemergence, 0 to 100 scale (0 no effect, 100 complete control); for Ryegrass, Italian plant response rating (0 to 100 scale, 0 is no effect, 100 is complete control): Preemergence, 500 g ai/ha, visual injury approx. 10 d
Summary of the method: as §1

[7] = system: Galium (catchweed bedstraw, Galium aparine); experiment: Test A postemergence; conditions: postemergence; for Galium plant response rating: 125 g ai/ha, visual injury rating on 0 to 100 scale (0 no effect, 100 complete control), approx. 10 d; for Plant response rating, Galium: 500 g ai/ha, 0 to 100 scale, 0 no effect, 100 complete control
Summary of the method: as §1

Kochia (Kochia scoparia) [8] = experiment: Test A postemergence; conditions: postemergence; for Kochia plant response rating: 125 g ai/ha, visual injury rating on 0 to 100 scale (0 no effect, 100 complete control), approx. 10 d; for Plant response rating, Kochia: 500 g ai/ha, 0 to 100 scale, 0 no effect, 100 complete control
Summary of the method: as §1

[9] = system: barnyardgrass (Echinochloa crus-galli); experiment: Test A postemergence; conditions: postemergence; for Barnyardgrass plant response rating: 125 g ai/ha, visual injury rating on 0 to 100 scale (0 no effect, 100 complete control), approx. 10 d; for Plant response rating, Barnyardgrass: 500 g ai/ha, 0 to 100 scale, 0 no effect, 100 complete control
Summary of the method: as §1

[10] = system: blackgrass (Alopecurus myosuroides); experiment: Test A postemergence; conditions: postemergence; for Blackgrass plant response rating: 125 g ai/ha, visual injury rating on 0 to 100 scale (0 no effect, 100 complete control), approx. 10 d; for Plant response rating, Blackgrass: 500 g ai/ha, 0 to 100 scale, 0 no effect, 100 complete control
Summary of the method: as §1

corn (Zea mays) = experiment: Test A postemergence; conditions: postemergence; for Corn plant response rating: 125 g ai/ha, visual injury rating on 0 to 100 scale (0 no effect, 100 complete control), approx. 10 d; for Plant response rating, Corn: 500 g ai/ha, 0 to 100 scale, 0 no effect, 100 complete control
Summary of the method: as §1

[11] = system: giant foxtail (Setaria faberii); experiment: Test A postemergence; conditions: postemergence; for Foxtail, Giant plant response rating: 125 g ai/ha, visual injury rating on 0 to 100 scale (0 no effect, 100 complete control), approx. 10 d; for Plant response rating, Foxtail, Giant: 500 g ai/ha, 0 to 100 scale, 0 no effect, 100 complete control
Summary of the method: as §1

[12] = system: pigweed (Amaranthus retroflexus); experiment: Test A postemergence; conditions: postemergence; for Pigweed plant response rating: 125 g ai/ha, visual injury rating on 0 to 100 scale (0 no effect, 100 complete control), approx. 10 d; for Plant response rating, Pigweed: 500 g ai/ha, 0 to 100 scale, 0 no effect, 100 complete control
Summary of the method: as §1

[13] = system: ragweed (common ragweed, Ambrosia elatior); experiment: Test A postemergence; conditions: postemergence; for Ragweed plant response rating: 125 g ai/ha, visual injury rating on 0 to 100 scale (0 no effect, 100 complete control), approx. 10 d; for Plant response rating, Ragweed: 500 g ai/ha, 0 to 100 scale, 0 no effect, 100 complete control
Summary of the method: as §1

[14] = system: ryegrass, Italian (Italian ryegrass, Lolium multiflorum); experiment: Test A postemergence; conditions: postemergence; for Ryegrass, Italian plant response rating: 125 g ai/ha, visual injury rating on 0 to 100 scale (0 no effect, 100 complete control), approx. 10 d; for Plant response rating, Ryegrass, Italian: 500 g ai/ha, 0 to 100 scale, 0 no effect, 100 complete control
Summary of the method: as §1

[15] = system: wheat (Triticum aestivum); experiment: Test A postemergence; conditions: postemergence; for Wheat plant response rating: 125 g ai/ha, visual injury rating on 0 to 100 scale (0 no effect, 100 complete control), approx. 10 d; for Plant response rating, Wheat: 500 g ai/ha, 0 to 100 scale, 0 no effect, 100 complete control
Summary of the method: as §1

[16] = system: barnyardgrass (Echinochloa crus-galli); experiment: Test B flooded paddy test; conditions: Flood, 250 g ai/ha; 0 to 100 scale where 0 is no effect and 100 is complete control; 13 to 15 d
Summary of the method: (§2)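 Compound goes directly into floodwater once pots are flooded 3 cm above soil, targeting plants at two leaves; the water depth is then held for the test duration. Plants sit 13–15 d in a greenhouse and are rated visually, 100 denoting complete control.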

[17] = system: ducksalad (Heteranthera limosa); experiment: Test B flooded paddy test; conditions: Flood, 250 g ai/ha; 0 to 100 scale where 0 is no effect and 100 is complete control; 13 to 15 d
Summary of the method: as §2

rice (Oryra sativa) = experiment: Test B flooded paddy test; conditions: Flood, 250 g ai/ha; 0 to 100 scale where 0 is no effect and 100 is complete control; 13 to 15 d
Summary of the method: as §2

[18] = system: sedge, umbrella (small-flower umbrella sedge, Cyperus difformis); experiment: Test B flooded paddy test; conditions: Flood, 250 g ai/ha; 0 to 100 scale where 0 is no effect and 100 is complete control; 13 to 15 d
Summary of the method: as §2

SMILES | Plant response rating, Kochia (Kochia (Kochia scoparia) [1]) | Kochia plant response rating (0 to 100 scale, 0 is no effect, 100 is complete control) (Kochia (Kochia scoparia) [1]) | Plant response rating, Barnyardgrass [2] | Barnyardgrass plant response rating (0 to 100 scale, 0 is no effect, 100 is complete control) [2] | Plant response rating, Foxtail, Giant [3] | Foxtail, Giant plant response rating (0 to 100 scale, 0 is no effect, 100 is complete control) [3] | Plant response rating, Pigweed [4] | Pigweed plant response rating (0 to 100 scale, 0 is no effect, 100 is complete control) [4] | Plant response rating, Ragweed [5] | Ragweed plant response rating (0 to 100 scale, 0 is no effect, 100 is complete control) [5] | Plant response rating, Ryegrass, Italian [6] | Ryegrass, Italian plant response rating (0 to 100 scale, 0 is no effect, 100 is complete control) [6] | Galium plant response rating [7] | Plant response rating, Galium [7] | Kochia plant response rating (Kochia (Kochia scoparia) [8]) | Plant response rating, Kochia (Kochia (Kochia scoparia) [8]) | Barnyardgrass plant response rating [9] | Plant response rating, Barnyardgrass [9] | Blackgrass plant response rating [10] | Plant response rating, Blackgrass [10] | further results
Cc1cc(C2CNC(=O)C2C(=O)Nc2cccc(F)c2F)ccc1F (stereo not drawn) [Compound 400] | 60 | 80 | 90 | 100 | 90 | 100 | 60 | 60 | 70 | 90 | 30 | 40 | 40 | 60 | 60 | 70 | 90 | 90 | 60 | 60 | Corn plant response rating (corn (Zea mays)): 20; Plant response rating, Corn (corn (Zea mays)): 80; Foxtail, Giant plant response rating [11]: 50; Plant response rating, Foxtail, Giant [11]: 70; Pigweed plant response rating [12]: 30; Plant response rating, Pigweed [12]: 50; Ragweed plant response rating [13]: 40; Plant response rating, Ragweed [13]: 50; Ryegrass, Italian plant response rating [14]: 20; Plant response rating, Ryegrass, Italian [14]: 90; Wheat plant response rating [15]: 30; Plant response rating, Wheat [15]: 70; Plant response rating, Barnyardgrass [16]: 65; Plant response rating, Ducksalad [17]: 100; Plant response rating, Rice (rice (Oryra sativa)): 20; Plant response rating, Sedge, Umbrella [18]: 0
Cc1cc(C2CNC(=O)C2C(=O)Nc2ccc(F)c(F)c2F)ccc1F (stereo not drawn) [Compound 401] | 50 | 80 | 90 | 90 | 80 | 90 | 20 | 50 | 0 | 50 | 0 | 40 | 50 | 60 | 50 | 60 | 90 | 90 | 0 | 50 | Corn plant response rating (corn (Zea mays)): 0; Plant response rating, Corn (corn (Zea mays)): 40; Foxtail, Giant plant response rating [11]: 30; Plant response rating, Foxtail, Giant [11]: 70; Pigweed plant response rating [12]: 0; Plant response rating, Pigweed [12]: 40; Ragweed plant response rating [13]: 30; Plant response rating, Ragweed [13]: 50; Ryegrass, Italian plant response rating [14]: 30; Plant response rating, Ryegrass, Italian [14]: 60; Wheat plant response rating [15]: 20; Plant response rating, Wheat [15]: 70; Plant response rating, Barnyardgrass [16]: 70; Plant response rating, Ducksalad [17]: 100; Plant response rating, Rice (rice (Oryra sativa)): 25; Plant response rating, Sedge, Umbrella [18]: 0
